Columns and labels:
Assay type in all cases: in vivo
[1] = test system: Monocotyledonous and dicotyledonous test plants; test: Example B1: herbicidal action prior to emergence (pre-emergence), 500 g/ha; settings: 13 days after application, 0 = no damage, 100 = plants completely dead; for ALOMY herbicidal effect (visual assessment, percentage scale): Alopecurus myosuroides (slender foxtail); for AMARE herbicidal effect (visual assessment, percentage scale): Amaranthus retroflexus (redroot pigweed); for ECHCG herbicidal effect (visual assessment, percentage scale): Echinochloa crus-galli (barnyard grass); for STEME herbicidal effect (visual assessment, percentage scale): Stellaria media (chickweed)
Experimental: (§1) Monocotyledonous and dicotyledonous test plants were sown in seed trays in standard compost. The trays were watered twice daily or as required. The chemicals were applied by track sprayer at the soil surface. The application was carried out with an aqueous suspension of the test substances, prepared as a formulation of 50% acetone in water with 0.5% Tween 20™ (CAS RN 9005-64-5), to achieve a field equivalent of 1000 l/ha. The application rate of the test substances was 500 g/ha. A visual assessment of the herbicidal effect was made at 13 days after application. The following percentage scale was used for assessment: 0, 5, 10, 20, 30, 40, 50, 60, 70, 80, 90, 95, 100 (where 0 is no damage to plants and 100 is plants are completely dead).

[2] = test system: Echinochloa crus-galli (barnyard grass); test: Example B2: herbicidal action post emergence, 500 g/ha; settings: applied to the foliage, 13 days after application, 0 is no damage to plants, 100 is plants completely dead
Experimental: as §1, with “standard compost and were grown for eight days.” for “standard compost.”, “sprayer to” for “sprayer at”, “the foliage.” for “the soil surface.”, “(where O” for “(where 0”

[3] = test system: Amaranthus retroflexus (redroot pigweed); test: as above; settings: applied to the foliage, 13 days after application, 0 is no damage to plants, 100 is plants completely dead
Experimental: as §1, with “standard compost and were grown for eight days.” for “standard compost.”, “sprayer to” for “sprayer at”, “the foliage.” for “the soil surface.”, “(where O” for “(where 0”

[4] = test system: Stellaria media (chickweed); test: as above; settings: applied to the foliage, 13 days after application, 0 is no damage to plants, 100 is plants completely dead
Experimental: as §1, with “standard compost and were grown for eight days.” for “standard compost.”, “sprayer to” for “sprayer at”, “the foliage.” for “the soil surface.”, “(where O” for “(where 0”

[5] = test system: Alopecurus myosuroides (slender foxtail); test: as above; settings: applied to the foliage, 13 days after application, 0 is no damage to plants, 100 is plants completely dead
Experimental: as §1, with “standard compost and were grown for eight days.” for “standard compost.”, “sprayer to” for “sprayer at”, “the foliage.” for “the soil surface.”, “(where O” for “(where 0”

[6] = test system: Monocotyledonous and dicotyledonous test plants; test: Example B3: herbicidal action prior to emergence (pre-emergence), 96-cell seed trays, 1000 g/ha; design: key: 0 is no damage to plant; 5 is total damage to plant; settings: 9 days after application
Experimental: Monocotyledonous and dicotyledonous test plants were sown in sterilised standard soil in seed trays each with 96 cells. The seed trays were stored under controlled conditions in a climatic chamber for one day (cultivation at 23° C. during the day and 17° C. at night; 13 hours of light; 50-60% humidity). The chemicals were applied to the soil surface. The application was carried out with an aqueous suspension of the test substances, prepared as a formulation in water with 10% dimethyl sulfoxide (CAS RN 67-68-5), to achieve a field equivalent of 1000 l/ha. The application rate of the test substances was 1000 g/ha. The plants were grown on in the climatic chamber for 9 days (cultivation at 24° C. during the day and 19° C. at night; 13 hours of light; 50-60% humidity). A visual assessment of the herbicidal effect was made at 9 days after application. The following scale was used for assessment: 0, 1, 2, 3, 4 and 5 (where 0 is no damage to plant and 5 is total damage to plant).

Compound | ALOMY herbicidal effect (visual assessment, percentage scale) [1] [%] | AMARE herbicidal effect (visual assessment, percentage scale) [1] [%] | ECHCG herbicidal effect (visual assessment, percentage scale) [1] [%] | STEME herbicidal effect (visual assessment, percentage scale) [1] [%] | ECHCG, visual assessment of the herbicidal effect [2] [%] | AMARE, visual assessment of the herbicidal effect [3] [%] | STEME, visual assessment of the herbicidal effect [4] [%] | ALOMY, visual assessment of the herbicidal effect [5] [%] | AGSTE herbicidal effect (visual assessment, scale 0-5) ([6]; Agrostis tenius (Colonial bentgrass)) | AMARE herbicidal effect (visual assessment, scale 0-5) ([6]; Amaranthus retroflexus (redroot pigweed)) | DIGSA herbicidal effect (visual assessment, scale 0-5) ([6]; Digitaria sanguinalis (hairy finger-grass)) | POATR herbicidal effect (visual assessment, scale 0-5) ([6]; Poa trivialis (rough blue grass)) | SETIT herbicidal effect (visual assessment, scale 0-5) ([6]; Setaria italica (foxtail millet))
Cn1nc(C(F)(F)F)c(CSc2ncc([N+](=O)[O-])s2)c1OCC(F)(F)F [Compound No. 1.061] | 80 | 100 | 95 | 95 | 80 | 40 | 40 | 40 | – | – | – | – | –
Cn1nc(C(F)(F)F)c(C[S+]([O-])c2ncc(Cl)s2)c1Cl (racemic) [1.017] | 95 | 95 | 95 | 95 | 60 | 70 | 70 | 70 | – | – | – | – | –
Cn1nc(C(F)(F)F)c(C[S+]([O-])c2ncc(Cl)s2)c1OC(F)F (racemic) [1.057] | 90 | 95 | 95 | 80 | 80 | 100 | 90 | 90 | – | – | – | – | –
Cn1nc(C(F)(F)F)c(CS(=O)(=O)c2ncc(Br)s2)c1OCC(F)(F)F [Compound No. 1.003, 5-bromo-2-[1-methyl-5-(2,2,2-trifluoroethoxy)-3-trifluoromethyl-1H-pyrazol-4-ylmethanesulfonyl]-thiazole] | 95 | 95 | 95 | 70 | 90 | – | 10 | 80 | – | – | – | – | –
Cn1nc(C(F)(F)F)c(C[S+]([O-])c2ncc(Cl)s2)c1OCC(F)(F)F (racemic) [1.014] | 100 | 100 | 95 | 95 | 60 | 70 | 80 | 70 | – | – | – | – | –
Cn1nc(C(F)(F)F)c(CSc2ncc(Br)s2)c1Cl [Compound No. 1.004, 5-bromo-2-(5-chloro-1-methyl-3-trifluoromethyl-1H-pyrazol-4-ylmethylsulfanyl)-thiazole] | 95 | 95 | 95 | 60 | 90 | 70 | 60 | 80 | – | – | – | – | –
Cn1nc(C(F)(F)F)c(C(F)(F)S(=O)(=O)c2ncc(Cl)s2)c1OCC(F)(F)F [Compound No. 1.037] | 60 | 100 | 95 | 95 | 20 | 95 | 70 | 90 | – | – | – | – | –
Cn1nc(C(F)(F)F)c(CSc2ncc(Cl)s2)c1OC(F)F [Compound No. 1.056] | 90 | 95 | 95 | 90 | 70 | 70 | 80 | 95 | – | – | – | – | –
Cn1nc(C(F)(F)F)c(C[S+]([O-])c2ncc(Br)s2)c1Cl (racemic) [1.005] | 95 | 100 | 95 | 60 | 80 | 80 | 70 | 80 | – | – | – | – | –
Cn1nc(C(F)(F)F)c(CS(=O)(=O)c2ncc(Br)s2)c1Cl [Compound No. 1.006, 5-bromo-2-(5-chloro-1-methyl-3-trifluoromethyl-1H-pyrazol-4-ylmethanesulfonyl)-thiazole] | 90 | 95 | 95 | 30 | 80 | 30 | 0 | 70 | – | – | – | – | –
Cn1nc(C(F)(F)F)c(CSc2ncc(Br)s2)c1OCC(F)(F)F [Compound No. 1.001, 5-bromo-2-[1-methyl-5-(2,2,2-trifluoroethoxy)-3-trifluoromethyl-1H-pyrazol-4-ylmethylsulfanyl]-thiazole] | 90 | 90 | 95 | 60 | 60 | 80 | 80 | 80 | – | – | – | – | –
Cn1nc(C(F)(F)F)c(CSc2ncc(Cl)s2)c1OCC(F)(F)F [Compound No. 1.013] | 95 | 95 | 80 | 95 | 50 | 60 | 80 | 60 | – | – | – | – | –
CCOc1c(C[S+]([O-])c2ncc(Br)s2)c(C(F)(F)F)nn1C (racemic) [1.022] | 95 | 100 | 95 | 90 | 80 | 70 | 80 | 60 | – | – | – | – | –
Cc1cnc([S+]([O-])Cc2c(C(F)(F)F)nn(C)c2OCC(F)(F)F)s1 (racemic) [Compound 1.074] | 70 | 95 | 0 | 80 | – | – | – | – | 5 | 3 | 5 | 5 | 4

— patent US20090048112A1, “Novel Herbicides” (SYNGENTA LIMITED, priority 2005, published 2009)
